In the Kinase Knowledgebase extract (Sharma et al. 2016) one finds IC50 data, which are given here for 40 compounds.

Each structure is given as a SMILES string. Some results are limits rather than exact numbers.

EGFR (human), sequence (P00533 whole entry, looked up): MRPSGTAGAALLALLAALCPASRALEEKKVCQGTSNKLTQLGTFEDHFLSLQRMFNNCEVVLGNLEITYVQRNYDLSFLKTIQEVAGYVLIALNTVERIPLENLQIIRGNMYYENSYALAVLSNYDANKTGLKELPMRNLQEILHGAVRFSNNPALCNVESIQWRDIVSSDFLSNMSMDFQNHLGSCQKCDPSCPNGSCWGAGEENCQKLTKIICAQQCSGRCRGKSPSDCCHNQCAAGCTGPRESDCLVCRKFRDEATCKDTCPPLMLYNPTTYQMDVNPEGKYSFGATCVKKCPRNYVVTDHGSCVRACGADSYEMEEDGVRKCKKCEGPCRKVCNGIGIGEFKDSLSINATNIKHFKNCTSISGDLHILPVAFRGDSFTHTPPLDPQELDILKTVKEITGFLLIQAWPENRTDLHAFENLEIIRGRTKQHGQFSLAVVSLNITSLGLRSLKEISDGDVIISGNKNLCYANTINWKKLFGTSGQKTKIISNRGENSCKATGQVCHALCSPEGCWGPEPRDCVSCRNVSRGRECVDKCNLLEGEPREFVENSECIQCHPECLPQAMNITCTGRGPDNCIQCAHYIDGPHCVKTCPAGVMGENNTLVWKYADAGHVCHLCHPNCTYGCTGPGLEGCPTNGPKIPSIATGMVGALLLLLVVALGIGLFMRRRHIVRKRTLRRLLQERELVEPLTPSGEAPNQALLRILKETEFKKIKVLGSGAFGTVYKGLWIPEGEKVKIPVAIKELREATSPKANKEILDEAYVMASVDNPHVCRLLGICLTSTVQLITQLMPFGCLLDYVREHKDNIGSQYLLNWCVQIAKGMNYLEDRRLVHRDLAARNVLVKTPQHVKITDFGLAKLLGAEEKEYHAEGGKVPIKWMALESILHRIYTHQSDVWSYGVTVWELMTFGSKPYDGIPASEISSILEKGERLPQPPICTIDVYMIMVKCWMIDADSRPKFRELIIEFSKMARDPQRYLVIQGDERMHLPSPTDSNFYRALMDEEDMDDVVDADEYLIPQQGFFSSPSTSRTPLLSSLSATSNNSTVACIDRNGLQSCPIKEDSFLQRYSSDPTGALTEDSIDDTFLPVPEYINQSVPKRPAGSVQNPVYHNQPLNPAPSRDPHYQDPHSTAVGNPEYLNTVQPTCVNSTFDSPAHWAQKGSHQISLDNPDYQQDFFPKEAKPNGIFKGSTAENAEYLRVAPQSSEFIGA

The assay has as its target EGFR (human) (UniProt P00533).
With `C=CC(=O)Nc1cc2c(Nc3ccc(F)c(Cl)c3)ncnc2cc1C#CCN1CCOCC1`, the IC50 (as a rule, the concentration that gives 50% inhibition) is less than 1 nM.
Under `CN1CCN(CCC#Cc2cc3ncnc(Nc4ccc(F)c(Cl)c4)c3cc2NS(C)(=O)=O)CC1` stands less than 1 nM; under `C=CC(=O)Nc1cc2c(Nc3ccc(F)c(Cl)c3)ncnc2cc1C#CC(C)(C)N(CCOC)CCOC`, 3.5 nM; under `C=CC(=O)Nc1cc2c(Nc3ccc(F)c(Cl)c3)ncnc2cc1C#CC(C)(C)N1CCC(=O)CC1`, 1.8 nM.
The result for `CN1CCN(CC#Cc2cc3ncnc(Nc4ccc(F)c(Cl)c4)c3cc2NS(C)(=O)=O)CC1` reads less than 1 nM; that for `COCCN(CCOC)C(C)(C)C#Cc1cc2ncnc(Nc3ccc(F)c(Cl)c3)c2cc1NS(C)(=O)=O`, 6.7 nM; that for `C#Cc1cccc(Nc2ncnc3cc(OCC)c(C#CC(C)(C)N4CCN(C(C)=O)CC4)cc23)c1`, greater than 10 nM.
Under `C=CC(=O)Nc1cc2c(Nc3ccc(F)c(Cl)c3)ncnc2cc1C#CC(C)(C)N1CCN(C(C)=O)CC1` stands less than 1 nM; under `COc1cc2ncnc(Nc3cccc(C(C)=O)c3)c2cc1C#CC(C)(C)N1CCN(C)CC1`, greater than 10 nM.
`CCOCC(C#Cc1cc2c(Nc3ccc(F)c(Cl)c3)ncnc2cc1OCC)(COCC)N1CCN(C)CC1` had an IC50 greater than 10 nM.
Compound `C=CC(=O)Nc1cc2c(Nc3ccc(F)c(Cl)c3)ncnc2cc1C#CC(C)(C)N1CCC(OC)CC1` had an IC50 of 4.6 nM.
Under `C#Cc1cccc(Nc2ncnc3cc(OCC)c(C#CC(C)(C)N(C)C4CCN(C)CC4)cc23)c1` stands 3.2 nM; under `C=CC(=O)Nc1cc2c(Nc3ccc(F)c(Cl)c3)ncnc2cc1C#CCN1CCN(C)CC1`, less than 1 nM; under `CS(=O)(=O)Nc1cc2c(Nc3ccc(F)c(Cl)c3)ncnc2cc1C#CCCN1CCOCC1`, less than 1 nM.
In the case of `CN1CCCN(C(C)(C)C#Cc2cc3ncnc(Nc4ccc(F)c(Cl)c4)c3cc2NS(C)(=O)=O)CC1`, the IC50 stood at 1.9 nM.
Under `C=CC(=O)Nc1cc2c(Nc3ccc(F)c(Cl)c3)ncnc2cc1C#CC(C)(C)N1CCN(CC)CC1` stands 3.3 nM.
`CCOc1cc2ncnc(Nc3ccc(F)c(Cl)c3)c2cc1C#CCCN1CCN(C)CC1`: the IC50 came out at 1.2 nM.
Compound `C=CC(=O)Nc1cc2c(Nc3ccc(F)c(Cl)c3)ncnc2cc1C#CC(C)(C)N1CCN(C)CC1` had an IC50 of 1.8 nM.
In the case of `C=CC(=O)Nc1cc2c(Nc3ccc(F)c(Cl)c3)ncnc2cc1C#CC1(N2CCN(C)CC2)CCCCC1`, the IC50 stood at 2.4 nM.
The result for `C=CC(=O)Nc1cc2c(Nc3ccc(F)c(Cl)c3)ncnc2cc1C#CC(COCC)(COCC)N1CCN(C)CC1` reads 4.4 nM.
On to `C=CC(=O)Nc1cc2c(Nc3ccc(F)c(Cl)c3)ncnc2cc1C#CC(C)(C)N1CCCN(C)CC1`, for which the IC50 came to 3.2 nM.
Consider `C=CC(=O)Nc1cc2c(Nc3ccc(F)c(Cl)c3)ncnc2cc1/C=C/CCN1CCN(C)CC1`, for which the IC50 is less than 1 nM.
As for `COCCN(C)C(C)(C)C#Cc1cc2ncnc(Nc3ccc(F)c(Cl)c3)c2cc1NS(C)(=O)=O`, the IC50 was determined as 3.1 nM.
Consider `C=CC(=O)Nc1cc2c(Nc3ccc(F)c(Cl)c3)ncnc2cc1C#CC(C)(C)N1CCN(S(C)(=O)=O)CC1`, for which the concentration for half-maximal inhibition (IC50) was determined as 1.9 nM.
On to `C=CC(=O)Nc1cc2c(Nc3ccc(F)c(Cl)c3)ncnc2cc1C#CC(C)(C)N(CC)CCC(=O)OC`, for which the IC50 came to 2.6 nM.
`C=CC(=O)Nc1cc2c(Nc3ccc(F)c(Cl)c3)ncnc2cc1C#CC(C)(C)N1CCN(CCOC)CC1`: the IC50 was determined as 1.5 nM.
The compound `CC(C)(C#Cc1cc2ncnc(Nc3ccc(F)c(Cl)c3)c2cc1NS(C)(=O)=O)N1CCN(S(C)(=O)=O)CC1` registered an IC50 of 2.1 nM.
Under `C=CC(=O)Nc1cc2c(Nc3ccc(F)c(Cl)c3)ncnc2cc1C#CC(C)(C)N1CCCC1` stands 2.6 nM.
The result for `C=CC(=O)Nc1cc2c(Nc3ccc(F)c(Cl)c3)ncnc2cc1C#CC(C)(C)N1CCC(O)CC1` reads 1.9 nM; that for `CCOc1cc2ncnc(Nc3ccc(F)c(Cl)c3)c2cc1C#CC(C)(C)N(C)C1CCN(C)CC1`, 3.8 nM; that for `C=CC(=O)Nc1cc2c(Nc3ccc(F)c(Cl)c3)ncnc2cc1C#CC(C)(C)N(C)CCOC`, 3.7 nM.
The result for `C=CC(=O)Nc1cc2c(Nc3ccc(F)c(Cl)c3)ncnc2cc1C#CC(C)(C)N1CCN(CCC#N)CC1` reads 2.9 nM; that for `C=CC(=O)Nc1cc2c(Nc3ccc(F)c(Cl)c3)ncnc2cc1C#CC(CC)(CC)N1CCN(C)CC1`, 2.1 nM.
On to `CC(=O)N1CCN(C(C)(C)C#Cc2cc3ncnc(Nc4ccc(F)c(Cl)c4)c3cc2NS(C)(=O)=O)CC1`, for which the IC50 came out at 2.1 nM.
Compound `CN(C)CCN(C)C(C)(C)C#Cc1cc2ncnc(Nc3ccc(F)c(Cl)c3)c2cc1NS(C)(=O)=O` registered an IC50 of 2.9 nM.
Take `C=CC(=O)Nc1cc2c(Nc3ccc(F)c(Cl)c3)ncnc2cc1C#CCCN1CCOCC1`: the IC50 is less than 1 nM.
Compound `COC1CCN(C(C)(C)C#Cc2cc3ncnc(Nc4ccc(F)c(Cl)c4)c3cc2NS(C)(=O)=O)CC1` came in with an IC50 of 5.3 nM.
As for `CC(C)(C#Cc1cc2ncnc(Nc3ccc(F)c(Cl)c3)c2cc1NS(C)(=O)=O)N1CCC(=O)CC1`, the IC50 worked out at 2.1 nM.
In the case of `CCOCC(C#Cc1cc2ncnc(Nc3ccc(F)c(Cl)c3)c2cc1NS(C)(=O)=O)(COCC)N1CCN(C)CC1`, the half-maximal inhibitory concentration (IC50) worked out at 10.3 nM.
In the case of `C=CC(=O)Nc1cc2c(Nc3ccc(F)c(Cl)c3)ncnc2cc1C#CC(C)(C)N(C)CCN(C)C`, the IC50 amounted to 2.4 nM.
